This assay relates to A375 melanoma cells. Put plainly: subG1 cell cycle FACS apoptosis assay, A375 melanoma cells. The assay is classed as cell-based, human. Conditions: A375, Protocol A. As to the method: To transfer adherent cells (A375 and BxPC-3 cells) after culture, cells are washed twice with PBS. To detach the cells, the enzyme biotase is used according to the manufacturer's instructions. For this purpose, after washing with PBS, the cells are mixed with biotase (5 ml of biotase solution per 75 cm^2 surface of the cell culture bottles) and incubated for 5 min at 37 degrees Celsius, and the biotase is separated by centrifugation. Cells cultivated in suspension (MEC-1 and lymphocytes) were transferred by dilution. The cells are suspended in culture medium and counted, each time 1.5×10^5 cells/cm^2 are seeded in 48-well plates and cultured for between 1.5 and 24 hours at 37 degrees Celsius, 5% CO2. Peptides are pre-diluted from stock solution with culture medium and 200 μl of peptide solution added so that final concentrations of 30 to 500 μM peptide are present in at most 1% (v/v) DMSO. As control solutions, culture medium without peptide (DMSO-containing) in culture medium or etoposide solution is added. After incubating the cells for several hours, the cell supernatant is transferred to a FACS tube for each batch and, after washing the cells with PBS, the wash solution is added. Then the cells are incubated with 200 μl of biotase solution for 10 min, 37° C., the cells with the biotase are also transferred to the FACS tube and the cells are collected by centrifugation for 5 min. The cell pellet is suspended in 500 μl of serum-free culture medium, then 1.5 ml of cold 80% ethanol (ethanol/PBS-80/20, v/v, stored at −20° C.) is added, the FACS tubes sealed and stored at −20 degrees Celsius for 15 to 18 h. Thereafter, the cells are centrifuged for 5 minutes at 120 g, suspended after removal of the supernatant in 2 ml PBS and incubated at 37 degrees Celsius for 30 minutes. After re-centrifugation, the cells are suspended in 0.5 ml DAPI solution and incubated for 15 min at 20 degrees Celsius in the dark. Thereafter, the cells are stored dark for a maximum of four hours in an ice bath, followed by the FACS analysis.
The adherent cells (A375 and BxPC-3 cells and MDA-MB-231, respectively) are seeded 24 hours before induction in 6-well plates in culture medium. For this, the cells are washed with PBS, then incubated with trypsin/EDTA solution at 37 degrees Celsius and suspended in culture medium. The 6-well plates are loaded with 1×10^5 cells/cm^2 in culture medium and the cells incubated for 24 hours until induction with the peptides in the incubator. For induction, the peptides are diluted in fresh culture medium. As control solutions, culture medium without peptide (DMSO-containing) in culture medium or etoposide solution is added. The cells are washed with PBS. Thereafter the peptide solution in culture medium is added to the cells. After incubation in the incubator (37° C., 5% CO2) between 1.5 and 24 hours, the cell supernatant is transferred to 15 ml centrifuge tubes, the cells are washed with 0.75 ml PBS and then with 0.5 ml versene solution. Both washings are combined with the cell supernatant. The cells are then added with 0.5 ml of trypsin/EDTA solution and incubated at about 37° C. for at most 10 minutes until the cells detached. The cell suspension is combined with cell supernatant and washings and centrifuged at about 130 g for about 10 minutes. After removing the supernatant, the cells are suspended in 400 μl of cell culture medium (without serum) and mixed with 1.2 ml of 80% ethanol/20% PBS (v/v) and incubated for 1 to 7 days at −20° C. For analysis, the cells are centrifuged at 130 g for 10 min, suspended in 2 ml PBS, and centrifuged again for 5 min. The cells are suspended in 700 μl PI buffer and incubated for 10 min at 37° C. in the dark. Subsequently, the cells are stored dark for a maximum of four hours in an ice bath, then the FACS analysis is performed.
The proportion of cells which have died was determined by two methods, both rely on the analysis of cells by flow cytometry, often called FACS analysis. […]

Turning to “k-s-q-t-v-q-k-w-m-v-v-y-f-r-k [SEQID No 36]”, for the setting “100 μM, FIG. 6”, the “apoptosis level (subG1), comparison in words” value is “slightly improved apoptosis level in view of peptide SEQID NO 27”. The “apoptosis efficiency (subG1) in view of Peptide SEQ C1” value (100 μM, about 24 hours, FIG. 4) is recorded as “at least fivefold” and the “apoptosis efficiency (subG1) in view of Peptide SEQ C1” value (200 μM, about 24 hours, FIG. 4) was “at least tenfold”. For the same substance, the “apoptosis level (subG1)” value (200 μM and above, incubation about 3 hours, FIG. 6) is “high apoptosis level”. For the same substance, the “apoptosis efficiency (subG1), comparison in words” value (“apoptosis efficiency … in words” for short) reads like this: (200 μM, incubation 1.5 h, 3 h and 6 h, FIG. 6) “improvement over Peptides SEQID NO 37 and SEQID NO 27”; (300 μM, all incubation times (1.5, 3, 6, 24 h), FIG. 6) “improvement with regard to all incubation times over Peptides SEQID NO 37 and SEQID NO 27”; (any concentration (50, 100, 200 μM), about 24 hours, FIG. 4) “clear improvement over Peptides SEQID NO 37 and SEQID NO 29 at any concentration”.
Turning to “k-s-q-t-v-k-k-w-m-v-v-y-f-r-k [SEQID No 29]”, the “apoptosis efficiency … in words” value (200 μM, about 24 hours, FIG. 4) is “higher efficiency at 200 μM in view of Peptide SEQID No 37”.
For the substance “s-q-t-v-q-k-w-m-v-v-y-f-r-k [SEQID No 37]”, the “apoptosis level (subG1), comparison in words” value (100 μM, FIG. 6) was “slightly improved apoptosis level in view of peptide SEQID NO 27”. Besides, the “apoptosis efficiency … in words” value (200 μM, incubation 24 h, FIG. 6) is “best results”.

(Values after US20220160812A1, “A PHARMACEUTICALLY ACTIVE SUBSTANCE” (Cytopharma GmbH, priority 2019, published 2022).)
